Assay results taken from patent publication US20090082304A1, “Methods of Treating Hematological Malignancies with Nucleoside Analog Drugs” (NORTHWESTERN UNIVERSITY, priority 2004, published 2009).
Like-named read-outs stand apart in the source and are kept apart here.

What was measured:
MM cells [1] = assay type: cell-based
Experimental: The MTS assay was performed as described previously (Krett et al., Clin Cancer Res. 3: 1781-1787). Briefly, MM cells were cultured into 96 well dishes at a concentration of 25,000 cells per well and incubated with the 8-NH2-Ado for 72 hours. Cell proliferation was determined using the MTS Cell Titer Aqueous assay (Promega, Madison, Wis.), which measured the conversion of a tetrazolium compound into formazan by a mitochondrial dehydrogenase enzyme in live cells. The quantity of formazan product as measured by the amount of 490 nm absorbance is directly proportional to the number of living cells in culture. The data were expressed as the percentage of formazan produced by the cells treated with the control medium in the same assay.

MM cells [2] = conditions: cited from earlier work
caspase 8 = test: Caspase 8 activation immunoblot in MM.1 S cells; assay type: cell-based; conditions: 10 μM
Experimental: (§1) 5×10^6 were cells treated with 10 μM 8-NH2-Ado for the indicated times and harvested. Cell pellets were washed with cold phosphate-buffered saline (PBS; 8.1 g NaCl, 1.14 g Na2HPO4, 0.22 g KCl, and 0.25 g/L KH2PO4) and incubated with lysis buffer (50 mM HEPES, 150 mM NaCl, 1.5 mM MgCl2, 1 mM EDTA pH 8.0, 100 mM NaFI, 10 mM Na Pyrophosphate, 500 μM PMSF, 0.5% Triton X-100, 10% glycerol) at 4° C. for one hour. Lysates were centrifuged at 4° C. for 1 minute at 9000×g, and the supernatants were collected and stored at −20° C. Protein concentration was determined by Bio-Rad protein assay (BioRad Laboratories, Hercules, Calif.). Protein, at a concentration of 30 μg, was mixed with sample buffer (125 mM Tris, pH 6.8, 4% SDS, 20% glycerol, 100 mM Dithiothreitol (DTT), and 0.05% bromophenol blue), and fractionated on a pre-cast 8-16% Tris-Glycine gel (Invitrogen/Novex, Carlsbad, Calif.). […]
MM.1 S cells were exposed to 10 μM 8-NH2-Ado for 0, 0.5, 1, 2, 4 or 6 hours, after which cells were lysed as previously described. […] Total protein levels were also assessed to ensure equal loading and transfer (data not shown). […]

MKP1 = test: Immunoblot of MKP1 in MM.1 S cells; assay type: cell-based; conditions: 10 μM, 0-6 hours
Experimental: as §1
One possible mechanism for the decrease in phosphorylation of the kinase molecules and their substrates is an increase in the activity of the phosphatase(s) that regulate them. To test this hypothesis, levels of MKPI, a dual specificity phosphatase that can act to dephosphorylate p38 MAPK, were assessed MM.1 S cells were exposed to 10 μM 8-NH2-Ado for 0, 0.5, 1, 2, 4 and 6 hours after which cells were lysed as previously described. […]

PKC-8 = test: Phosphorylation status of PKC-8; assay type: cell-based
JNK = test: Immunoblot of phospho-JNK in MM.1 S cells; assay type: cell-based; conditions: 10 μM, 0-6 hours
Experimental: 5×10^6 were cells treated with 10 μM 8-NH2-Ado for the indicated times and harvested. Cell pellets were washed with cold phosphate-buffered saline (PBS; 8.1 g NaCl, 1.14 g Na2HPO4, 0.22 g KCl, and 0.25 g/L KH2PO4) and incubated with lysis buffer (50 mM HEPES, 150 mM NaCl, 1.5 mM MgCl2, 1 mM EDTA pH 8.0, 100 mM NaFI, 10 mM Na Pyrophosphate, 500 μM PMSF, 0.5% Triton X-100, 10% glycerol) at 4° C. for one hour. Lysates were centrifuged at 4° C. for 1 minute at 9000×g, and the supernatants were collected and stored at −20° C. Protein concentration was determined by Bio-Rad protein assay (BioRad Laboratories, Hercules, Calif.). Protein, at a concentration of 30 μg, was mixed with sample buffer (125 mM Tris, pH 6.8, 4% SDS, 20% glycerol, 100 mM Dithiothreitol (DTT), and 0.05% bromophenol blue), and fractionated on a pre-cast 8-16% Tris-Glycine gel (Invitrogen/Novex, Carlsbad, Calif.). Proteins were then transferred to a Polyvinylidene Fluoride (PVDF) membrane (Immobilon-P, Millipore, Bedford, Mass.): Following protein transfer, membranes were blocked with 5% non-fat milk in PBS-T (PBS with 0.1% Tween), incubated with the primary antibody overnight at 4° C. and subsequently with horseradish peroxidase linked secondary antibody (Amersham, Arlington Heights, Ill.). […]

PTEN = test: Immunoblot of PTEN (total and phospho) in MM.1 S cells; assay type: cell-based; conditions: 10 μM, 0-6 hours
Experimental: as §1
In addition, the effect of 8-NH2-Ado treatment on PTEN, which encodes a key phosphatase involved in the negative regulation of the PI3K/Akt signaling pathway was assessed (FIG. 5B). […]

[3] = system: total protein levels of the signaling proteins in myeloma cells; test: Immunoblot reprobe with total protein antibodies; assay type: cell-based
Experimental: 5×10^6 were cells treated with 10 μM 8-NH2-Ado for the indicated times and harvested. Cell pellets were washed with cold phosphate-buffered saline (PBS; 8.1 g NaCl, 1.14 g Na2HPO4, 0.22 g KCl, and 0.25 g/L KH2PO4) and incubated with lysis buffer (50 mM HEPES, 150 mM NaCl, 1.5 mM MgCl2, 1 mM EDTA pH 8.0, 100 mM NaFI, 10 mM Na Pyrophosphate, 500 μM PMSF, 0.5% Triton X-100, 10% glycerol) at 4° C. for one hour. Lysates were centrifuged at 4° C. for 1 minute at 9000×g, and the supernatants were collected and stored at −20° C. Protein concentration was determined by Bio-Rad protein assay (BioRad Laboratories, Hercules, Calif.). Protein, at a concentration of 30 μg, was mixed with sample buffer (125 mM Tris, pH 6.8, 4% SDS, 20% glycerol, 100 mM Dithiothreitol (DTT), and 0.05% bromophenol blue), and fractionated on a pre-cast 8-16% Tris-Glycine gel (Invitrogen/Novex, Carlsbad, Calif.). Proteins were then transferred to a Polyvinylidene Fluoride (PVDF) membrane (Immobilon-P, Millipore, Bedford, Mass.): Following protein transfer, membranes were blocked with 5% non-fat milk in PBS-T (PBS with 0.1% Tween), incubated with the primary antibody overnight at 4° C. and subsequently with horseradish peroxidase linked secondary antibody (Amersham, Arlington Heights, Ill.). Blots were developed using ECL Plus Chemiluminescent Western Blotting Detection reagent (Amersham, Arlington Heights, Ill.) and the signal was visualized with X-ray film (Hyperfilm, Amersham, Arlington Heights, Ill.). For reprobing purposes, blots were stripped using Restore Western Blot Stripping Buffer from Pierce Biotechnology (Rockford, Ill.). Phospho-MKK3/6 (Ser189/207), phospho-p38 (Thr180/Tyr182), phospho-ATF-2 (Thr69/71), phospho-c-Raf (Ser259), phospho-MEK1/2 (Ser217/221), total MEK1/2, phospho-ERK1/2 (Thr202/Tyr204), total ERK1/2, phospho-p90RSK (Ser380), total RSK, phospho-PDK1 (Ser241), total PDKI, phospho-PTEN (Ser380), total PTEN, phospho-Akt (Ser473), total Akt, phospho-GSK-3β (Ser9), total GSK-3β, phospho-FKHRLI (Thr32)/-FKHR (Thr24), phospho-FKHR (Ser256) primary antibodies were obtained from Cell Signaling Technology (Beverly, Mass.). Total MKK3, total MKK6, total p38, total ATF-2, total c-Raf, total FKHR, total FKHRLI, phospho-JNK and total JNK were purchased from Santa Cruz Biotechnology (Santa Cruz, Calif.). Caspase 3, caspase 9, and PARP antibodies were obtained from Pharmingen (San Diego, Calif.) and anti-MKP1 from Upstate (Lake Placid, N.Y.). Anti-caspase 8 mouse serum was a generous gift of Dr. Marcus Peter (University of Chicago).
MM.1 S cells were exposed to 10 μM 8-NH2-Ado for 0, 0.5, 1, 2, 4 and 6 hours, after which cells were lysed as previously (Example 2). 30 μg of protein was separated by gel electrophoresis, transferred to PVDF membrane, and probed with phosphorylation-specific antibodies to MKK3/6, p38 MAPK, ATF-2, MEK1/2, ERK1/2, p90RSK, JNK1, PDK1, Akt, FKHRL1 and GSK-3β. […] FIGS. 1A, 1B, 1C and 1D provide the results of the blots.

Nc1ncnc2c1nc(N)n2[C@@H]1O[C@H](CO)[C@@H](O)[C@H]1O [8-NH2-Ado, 8-amino-adenosine]
cytotoxicity (MM cells [1]): cytotoxic | effect on normal versus malignant cells (MM cells [1]): differential effect | cytotoxicity (MM cells [2]): affected by the cytotoxic ability | time at which cleaved and activated caspase 8 appears (caspase 8): 2 to 4 h | MKP1 levels (MKP1): unaltered | phosphorylation status of PKC-8 (PKC-8): unaltered | JNK phosphorylation (JNK): unaffected | total and phospho-PTEN levels (PTEN): unaltered | Total protein levels of the p38 MAPK module (MKK3/6, p38, ATF-2) ([3]; MM.1 S cells, 10 μM, 0-6 hours): remain unchanged | total ERK1/2 levels ([3]; MM.1 S cells, 10 μM, 0-6 hours): remain unchanged | total MEK1/2 protein levels ([3]; MM.1 S cells, 10 μM, 0-6 hours): do not change | total p90RSK protein levels ([3]; MM.1 S cells, 10 μM, 0-6 hours): unaffected | total protein levels of Forkhead family members ([3]; MM.1 S cells, 10 μM, 0-6 hours): do not change | total p38 levels ([3]; RPMI-8226, MDR10V and MM.1 R cells): remain unchanged
